According to patent publication US20250214973A1, “1,4,5-TRISUBSTITUTED-1,2,3-TRIAZOLES AND USES THEREOF” (UNIVERSITY OF PUERTO RICO, priority 2022, published 2025):

What was measured:
[1] = test system: RAW264.7 macrophage cell line; assay: Wound healing assay; assay type: cell-based, murine; conditions: Mus musculus, read-out: inhibition of wound closure, RAW264.7
Procedure: Mircrographs were digitally acquired at 0, 12, and 24 hours and the area of the wound quantified relative to the distance at time 0. n=3.
Murine macrophage cell line, RAW264.7, plated at equal density were subjected to a scratch in the center and treated with 4c at 0, 150 nM, 250 nM, or 500 nM. Mircrographs were digitally acquired at 0, 12, and 24 hours and the area of the wound quantified relative to the distance at time 0. n=3.

MDA-MB-231 = assay: Cell viability assay (MTT); assay type: cell-based; conditions: Homo sapiens, MDA-MB-231
Procedure: Cells plated at equal density were treated at 500 nM of compounds. […]
Cells plated at equal density were treated at 250 nM of 4c at 250 nM.
Data from 3 biologic replicates each with 2 technical replicates. Four parameter dose-response curves generated using GraphPad Prism are shown.
Cell viability relative to vehicle (100%) is shown.
[…] Using CellTiter 96 Non-Radioactive Cell Proliferation Assay (Promega, Corp.) according to manufactures' instructions, formazan was used as an indicator of viable cells at an absorbance 570 nm in a Tecan Microplate Reader M100. Data was calculated as fold change from vehicle and fitted using the 4′parameter logic nonlinear regression model in GraphPad Prism software. (n=3 biologic replicates: with 3 technical replicates each).
A range of compounds were tested by MTT assays for cell viability in MDA-MB-231 triple negative breast cancer (TNBC) cells and MDA-MB-435 HER2++ cancer cells.

[2] = test system: A549 lung adenocarcinoma cells; assay: EGF-induced membrane ruffles, F-actin staining; assay type: cell-based; conditions: 24 h
Procedure: Cells were stimulated with EGF (200 ng/ml) for 5 min, and fixed and stained with Rhodamine Phalloidin for F-actin.
Cells were grown on glass coverslips and treated with vehicle or 4c for 24h. Lung cancer cells that were stimulated with epidermal growth factor (EGF) were serum starved prior to stimulation with 200 ng/ml EGF for 5 min. Following fixation in 4% formaldehyde, cells were stained for F-actin with Rhodamine phalloidin and visualized by fluorescence microscopy. 5 random fields were scored for the number of ruffles.

Vav2 binding to Rac1 = biological target: T1, Vav2 binding to Rac1 (Homo sapiens, UniProt P63000, G15A); assay: Rac1 GEF assay, Rac1(G15A) pulldown; conditions: 250 nM, MDA-MB-231 lysates
T1 construct: purchased Cell Biolabs, San Diego; CA; host or cells: Vav2 from MDA-MB-231 cell lysate
Procedure: GST-Rac1 (G15A) beads were pre-incubated with vehicle (0.1% DMSO), or 8 μM EHop-016, or 250 nM Compound 4c for 1 hour followed by incubation with MDA-MB-231 cell lysates (equal total protein). Representative Western blot for Rac1(G15A) or pulldowns immunostained for Vav2 is shown (n=3).
MDA-MB-231 cells in culture medium were lysed in 1% Triton X-100, 20 mM HEPES, pH 7.4, 150 mM NaCl, 5 mm MgCl2, and protease inhibitors and processed. Equal amounts of protein from cleared lysates were incubated for 1 h at 4° C. with glutathione-agarose beads conjugated to GST-Rac1(G15A) nucleotide-free mutant (Cell Biolabs, San Diego. CA) that were preincubated (for 1 h) with vehicle or 8 μm EHop-016 or 0.25 μM Compound 4c. The beads were washed, and the lysates and pull-downs were immunoblotted for Tiam-1, Trio, Ect2, p-REX, or Vav2.

[3] = test system: human mammary epithelial cells (HMEC); assay: Cell viability assay (MTT); assay type: cell-based; conditions: 0-1000 nM
Procedure: Cells were treated with 4c at concentrations ranging from 0-1000 nM. Cell viability was assessed by a MTT assay. n=2.
Equal number of cells were seeded in a 24 well plate and incubated with vehicle or compounds according to this disclosure at concentrations between 1 and 0.001 nM for 72 and 120 hrs. Using CellTiter 96 Non-Radioactive Cell Proliferation Assay (Promega, Corp.) according to manufactures' instructions, formazan was used as an indicator of viable cells at an absorbance 570 nm in a Tecan Microplate Reader M100. Data was calculated as fold change from vehicle and fitted using the 4′parameter logic nonlinear regression model in GraphPad Prism software. (n=3 biologic replicates: with 3 technical replicates each).

GI50 (MDA-MB-231; summary over breast cancer cell lines, read-out: GI50 for breast cancer cell viability inhibition): ~300 nM
inhibition at […] (Vav2 binding to Rac1): ~80%
SMILES: CCn1c2ccccc2c2cc(-n3nnc(C(O)c4cccc(OC)c4)c3-c3ccccc3)ccc21 (stereo not shown) [Compound 4c, (1-(9-ethyl-9H-carbazol-3-yl)-5-phenyl-1H-1,2,3-triazol-4-yl) (3-methoxyphenyl) methanol]
inhibition at 0.15 µM ([1]; 150 nM): 50%
inhibition at […] ([1]; 250 nM): 80%
inhibition at 0.5 µM ([1]; 500 nM): 90%
cytotoxicity at 0.5 µM (MDA-MB-231; 500 nM, 72 hours, read-out: inhibition of MDA-MB-231 cell viability): < 50%
reduction of membrane ruffles in response to EGF ([2]; 250 nM): 20%
reduction of membrane ruffles in response to EGF ([2]; 500 nM): ~38%
reduction of membrane ruffles in response to EGF ([2]; 1000 nM): 58%
effect on non-transformed HMEC viability [3]: did not affect
